Experimental data: PMC5691623 (Viruses, 2017)

System: SFV vector VA7-mCherry
Assay: Live microscopy of SFV infection in Pa02C pancreatic cancer cells
Format: cell-based, Semliki Forest virus
Conditions: 1 µM, low moi (0.01), 96 h

## CC1(C)CCC(c2ccc(Cl)cc2)=C(CN2CCN(c3ccc(C(=O)NS(=O)(=O)c4ccc(N[C@H](CCN5CCOCC5)CSc5ccccc5)c(S(=O)(=O)C(F)(F)F)c4)cc3)CC2)C1 [ABT-263]
  effect on replication and spread of SFV: attenuated the replication and spread of the virus
